The record followed here is PMC7496268, “Activity‐Directed Synthesis of Inhibitors of the p53/hDM2 Protein–Protein Interaction” (Chemistry (Weinheim an Der Bergstrasse, Germany), 2020).

The first assay has as its target T1, hDM2 (Homo sapiens, UniProt Q00987).
T1 construct: gene MDM2; 15N-labelled for NMR; the anisotropy footnote prints hDM2_17-25, apparently a misprint of 17-125
Nature of the assay: 1H-15N HSQC NMR titration. The conditions noted are these: read-out: NMR Binding^[d] (K d/μM). From the text: 1H-15N HSQC NMR titration on hDM2
With `CN(C(=O)C(=O)c1ccc(Cl)cc1)c1ccc(Cl)cc1` [P4], the Kd is 35 ± 16 µM.
Regarding `O=C(COC1CCc2cc(Cl)ccc21)N1CCC(c2ccccc2)C1` (centres unmarked) [P2], the Kd was determined as 34 ± 13 µM.

In a further assay the target is T1, hDM2. Nature of the assay: biochemical. Details: fluorescence anisotropy competition, displacement of fluorescein-labelled p53 15-31 peptide from hDM2. The conditions noted are these: read-out: FA IC50. On the procedure: The assay was then implemented similarly to the examples above to give final compound concentrations between 160 – 0.08 µM. IC50 values were determined and curves were fit in Origin Pro 2019b using a non-linear curve fitting with the dose response fitting procedure and Levenberg Marquardt iteration algorithm. 17 5.2 Fluorescence anisotropy assays The fluorescein-labelled p5315-31 Flu transactivation domain peptide (Ac-[…](Flu)- NH2) was purchased from Peptide Synthetics. The assay was carried out using Perkin-Elmer 384-well Opti-plate assay plates (6007270). Fluorescence anisotropy assays were performed in a buffer containing 40 mM phosphate pH 7.5, 200 mM NaCl and 0.02 mg/mL bovine serum albumin (PBSA). Results were collected using a Perkin-Elmer Envision 2103 Multilabel Reader using a 431 nm mirror, 480(104) nm excitation filter, and 535(208) and 535(209) nm emission filters after 2.5 or 24 hours of incubation at room temperature. Test well anisotropy values were then calculated using the blank corrected S and P channel values using the following formula: […]
On to `O=C(CO[C@@H]1CCc2cc(Cl)ccc21)N1CC[C@@H](c2ccccc2)C1` [P2a], for which the IC50 (commonly the point on the concentration scale where inhibition reaches its midpoint) is 28.2 ± 3 µM.
With `O=C(CO[C@@H]1CCc2cc(Cl)ccc21)N1CC[C@H](c2ccccc2)C1` [ent-P2b], the IC50 stood at 28.6 ± 2.9 µM.
On to `O=C(COC1CCCC1)N1CCC(c2ccccc2)C1` (centres unmarked) [SI1], for which the IC50 was more than 200 µM.
With `O=C(COC1CCc2cc(Cl)ccc21)N1CCCC1` (centres unmarked) [SI2], the IC50 was more than 200 µM.
As to `O=C(CO[C@H]1CCc2cc(Cl)ccc21)N1CC[C@@H](c2ccccc2)C1` [P2b], the IC50 worked out at 36.5 ± 3.5 µM.
`O=C(CO[C@H]1CCc2cc(Cl)ccc21)N1CC[C@H](c2ccccc2)C1` [ent-P2a]: the IC50 was 26 ± 3.8 µM.

The next assay has as its target T1, hDM2. As to the kind of experiment: fluorescence anisotropy competition, displacement of fluorescein-labelled p53 tracer peptide. Format: binding. Conditions: read-out: Fluorescence anisotropy^[c] IC50. An excerpt:
fluorescence anisotropy competition, displacement of fluorescein-labelled p53 tracer peptide on hDM2
(In general: In fluorescence polarisation assays a small probe gives low polarisation when free and higher when bound to something large.)
Consider `CN(C(=O)C(=O)c1ccc(Cl)cc1)c1ccc(Cl)cc1` [P4], for which the IC50 is more than 30 µM.
Take `O=C1Nc2cc(Cl)ccc2C1c1c[nH]c2cc(Cl)ccc12` (centres unmarked) [P6]: the IC50 is 0.94 ± 0.03 µM.
With `CN1C(=O)C(c2ccc(Cl)cc2)c2cc(Cl)ccc21` (centres unmarked) [P3], the IC50 was more than 100 µM.
In the case of `CCOCC1CC12C(=O)Nc1cc(Cl)ccc12` (centres unmarked) [P7], the IC50 is more than 160 µM.
On to `O=C(COC1CCc2cc(Cl)ccc21)N1CCC(c2ccccc2)C1` (centres unmarked) [P2], for which the IC50 worked out at 15 ± 0.1 µM.

Still in this assay, the particulars now being: […] hDM2, […] tracer, […] BSA, […] NaCl, […] DMSO, […] phosphate pH […] h; unreliable (limited solubility).
For the molecule `O=C1Nc2cc(Cl)ccc2C12CC2c1ccc(Cl)cc1` (centres unmarked) [P5], the “Fluorescence anisotropy^[c] IC50 [μM]” value is reported as ~ 10 μM.
